Results on one compound are retold here after EP0584085B1, “ANTIBIOTIC CARBAPENEM DERIVATIVES” (ZENECA LIMITED, priority 1991, dated 1992).

Holding throughout (test): MIC by agar-dilution, Diagnostic Sensitivity Test agar
Holding throughout (type): cell-based

In test [1] the test system is Ent.cloacae P99^- (401054). Particulars: Enterobacter cloacae. The source says:
(§1) The following results were obtained for representative compounds on a standard in vitro test system using Diagnostic Sensitivity Test agar medium. The antibacterial activity is described in terms of the minimum inhibitory concentration (MIC) determined by the agar-dilution technique with an inoculum size of 10^4 CFU/spot.

Test [2] relates to Pr.morganii (433001). The note with it: Morganella morganii, inoculum 10^4 CFU/spot.
Text: as §1

Test [3] concerns B. fragilis AMP R (542008). Particulars: Bacteroides fragilis, inoculum 10^4 CFU/spot.
Text: as §1

In test [4] the test system is S.dublin (369001). Particulars: Salmonella enterica, inoculum 10^4 CFU/spot.
Text: as §1

Test [5] relates to P.aeruginosa PU21 (101028). Particulars: Pseudomonas aeruginosa, inoculum 10^4 CFU/spot.
Text: as §1

Test [6] deals with P. aeruginosa 18S (101024). The note with it: Pseudomonas aeruginosa, inoculum 10^4 CFU/spot.
Text: as §1

Test [7] concerns Strep.pyogenes (681018). Particulars: Streptococcus pyogenes, inoculum 10^4 CFU/spot.
Text: as §1

Test [8] deals with E.coli DCO (341098). Particulars: Escherichia coli, inoculum 10^4 CFU/spot.
Text: as §1

The test system of test [9] is Serr.marcesens (421003). The note with it: inoculum 10^4 CFU/spot.
Text: as §1

Test [10] has as its system St.aureus 147N (601052). The note with it: Staphylococcus aureus, inoculum 10^4 CFU/spot.
Text: as §1

The structures appear in SMILES notation. Converted amounts (≈) assume the structure as drawn.

For orientation: MIC means the least concentration at which growth counts as inhibited. Low readings indicate a more susceptible organism, high ones a less susceptible organism. Regarding `C[C@@H](O)[C@H]1C(=O)N2C(C(=O)O)=C(S[C@@H]3CN[C@H](C(=O)Nc4cc(O)c(O)c(C#N)c4)C3)[C@H](C)[C@H]12` [Example 2, (1R,5S,6S,8R,2'S,4'S)-2-(2-(5-Cyano-3,4-dihydroxyphenylcarbamoyl)pyrrolidin-4-ylthio)-6-(1-hydroxyethyl)-1-methyl-carbapenem-3-carboxylic acid], the MIC was 0.015 µg/mL (≈ 0.0307 µM) in [1]; 0.125 µg/mL (≈ 0.256 µM) in test [2]; 0.25 µg/mL (≈ 0.512 µM) in test [3]; 0.008 µg/mL (≈ 0.0164 µM) in test [4]; 0.25 µg/mL (≈ 0.512 µM) in test [5]; 0.06 µg/mL (≈ 0.123 µM) in test [6]. Also, the MIC in test [7] was found to be 0.008 µg/mL (≈ 0.0164 µM); in test [8], 0.015 µg/mL (≈ 0.0307 µM); in test [9], 0.125 µg/mL (≈ 0.256 µM); in [10], 0.25 µg/mL (≈ 0.512 µM).
